What follows are compounds tested against T1, EGFR L858R-T790M (Homo sapiens, UniProt P00533, L858R/T790M) (assay: EGFR degradation, Total EGFR (L858R-specific) HTRF, NCI-H1975). Conditions: Table 9B; NCI-H1975 cells, 6 hours, Total EGFR HTRF; read-out: H1975 EGFR DC50.
T1 construct: NCI-H1975 (harboring EGFR heterozygous L858R-T790M mutations); host or cells: NCI-H1975
Assay type: cell-based
Description: NCI-H1975 (harboring EGFR heterozygous L858R-T790M mutations) and NCI-H3255 (harboring EGFR heterozygous L858R mutation) were purchased from ATCC and NCI, respectively. NCI-H1975+CS (harboring EGFR heterozygous L858R-T790M-C797S mutations) was generated using CRISPR technology to introduce the additional C797S mutation by Horizon Discovery. A431 (harboring EGFR wildtype) was purchased from ATCC. RPMI 1640 no-phenol red medium and fetal bovine serum (FBS) were purchased from Gibco (Grand Island, NY, USA). Cell culture flasks and 384-well microplates were acquired from VWR (Radnor, PA, USA). Phosphorylated (pY1068) EGFR and Total EGFR (using L858R-specific detection antibody and pan-EGFR antibody for EGFR mutant cell lines and EGFR wild-type cell lines, respectively) HTRF assay kits were purchased from Cisbio (Bedford, MA, USA).
Degradation of EGFR protein containing L858R mutation or wild-type was determined based on quantification of FRET signal using a Total EGFR (L858R-specific or pan-EGFR detecting) HTRF assay kit. Phospho-EGFR (pEGFR) inhibition was determined based on quantification of FRET signal using a pY1068 EGFR HTRF assay kit. In separate assay plates, test compounds were added to the 384-well plate from a top concentration of 10 μM with 11 points, half log titration in duplicates. For each assay, 12.5 uL of cells suspended in assay media (RPMI 1640 no-phenol red medium+10% FBS) at cell densities indicated for each cell line in Table 8 below were dispensed using a multi-channel pipette to 384-well low volume white HTRF microplates containing a duplicate concentration range of test compounds and DMSO controls. The plates were kept at 37° C. with 5% CO2 for 6 hours and then incubated with either phospho EGFR or Total EGFR HTRF detection antibodies according to the cell line and EGFR mutant being assayed. Cells treated in the absence of the test compound were the negative control. Positive control was set by wells containing all reagents but no cells. FRET signal was acquired on EnVision™ Multilabel Reader (PerkinElmer, Santa Clara, CA, USA). Compound concentration that achieves 50% degradation and inhibition was reported as DC50 and IC50, respectively.

T1 sequence (P00533 25-1210 T790M/L858R): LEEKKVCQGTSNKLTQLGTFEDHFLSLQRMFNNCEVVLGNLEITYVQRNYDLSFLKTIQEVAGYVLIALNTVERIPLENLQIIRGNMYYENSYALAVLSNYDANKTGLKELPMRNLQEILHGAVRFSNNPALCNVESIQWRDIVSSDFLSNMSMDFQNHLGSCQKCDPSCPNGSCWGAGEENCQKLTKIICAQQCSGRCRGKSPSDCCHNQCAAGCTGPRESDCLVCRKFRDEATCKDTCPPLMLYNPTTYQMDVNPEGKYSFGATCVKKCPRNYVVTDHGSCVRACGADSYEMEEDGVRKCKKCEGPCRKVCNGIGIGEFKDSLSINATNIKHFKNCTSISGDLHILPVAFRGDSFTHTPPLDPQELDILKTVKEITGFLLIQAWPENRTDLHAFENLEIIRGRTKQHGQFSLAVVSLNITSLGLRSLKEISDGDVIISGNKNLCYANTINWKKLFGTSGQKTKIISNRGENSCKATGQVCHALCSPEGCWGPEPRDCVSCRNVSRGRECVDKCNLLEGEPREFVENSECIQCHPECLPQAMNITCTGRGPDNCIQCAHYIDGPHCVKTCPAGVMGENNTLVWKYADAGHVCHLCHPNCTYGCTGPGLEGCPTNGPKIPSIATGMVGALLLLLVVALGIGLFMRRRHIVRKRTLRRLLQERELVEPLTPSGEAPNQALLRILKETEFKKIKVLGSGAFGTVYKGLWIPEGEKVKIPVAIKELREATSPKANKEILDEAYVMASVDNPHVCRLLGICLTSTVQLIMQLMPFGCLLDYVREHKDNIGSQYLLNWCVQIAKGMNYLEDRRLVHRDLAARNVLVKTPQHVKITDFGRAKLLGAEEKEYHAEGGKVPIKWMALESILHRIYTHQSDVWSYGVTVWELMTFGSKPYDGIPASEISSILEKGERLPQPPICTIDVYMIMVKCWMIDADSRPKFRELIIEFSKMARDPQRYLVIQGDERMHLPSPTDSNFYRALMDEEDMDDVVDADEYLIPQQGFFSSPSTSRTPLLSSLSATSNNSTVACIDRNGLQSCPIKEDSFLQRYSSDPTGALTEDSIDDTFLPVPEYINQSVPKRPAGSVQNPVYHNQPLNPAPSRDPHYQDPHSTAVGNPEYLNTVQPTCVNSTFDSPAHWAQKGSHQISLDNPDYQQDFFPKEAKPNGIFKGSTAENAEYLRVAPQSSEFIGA

DC50 [nM]	Compound
< 50	O=C1CC[C@H](Nc2ccc(C3CCN(CC(=O)N4CC5(C4)CN(c4ccc(-c6cc(F)c7c(c6)C(=O)N(C(C(=O)Nc6nccs6)c6ncn8c6CCC8)C7)cn4)C5)CC3)c(F)c2)C(=O)N1 (stereo partly drawn) [Compound 95, 2-(6,7-dihydro-5H-pyrrolo[1,2-c]imidazol-1-yl)-2-(6-(6-(6-(2-(4-(4-(((S)-2,6-dioxopiperidin-3-yl)amino)-2-fluorophenyl)piperidin-1-yl)acetyl)-2,6-diazaspiro[3.3]heptan-2-yl)pyridin-3-yl)-4-fluoro-1-oxoisoindolin-2-yl)-N-(thiazol-2-yl)acetamide]
> 150	N#Cc1cc(N2CCC(=O)NC2=O)ccc1N1CCC(O)(CC(=O)N2CC3(C2)CN(c2ccc(-c4cc(F)c5c(c4)C(=O)N(C(C(=O)Nc4nccs4)c4ncn6c4CCC6)C5)cc2)C3)CC1 (centres unmarked) [Compound 171, 2-[6-[4-[2-[2-[1-[2-cyano-4-(2,4-dioxohexahydropyrimidin-1-yl)phenyl]-4-hydroxy-4-piperidyl]acetyl]-2,6-diazaspiro[3.3]heptan-6-yl]phenyl]-4-fluoro-1-oxo-isoindolin-2-yl]-2-(6,7-dihydro-5H-pyrrolo[1,2-c]imidazol-1-yl)-N-thiazol-2-yl-acetamide]
< 50	Cn1nc(N2CCC(=O)NC2=O)c2ccc(N3CCC(O)(CC(=O)N4CC5(C4)CN(c4ccc(-c6cc(F)c7c(c6)C(=O)N(C(C(=O)Nc6nccs6)c6ncn8c6CCC8)C7)cc4)C5)CC3)cc21 (centres unmarked) [Compound 109, 2-(6,7-dihydro-5H-pyrrolo[1,2-c]imidazol-1-yl)-2-(6-(4-(6-(2-(1-(3-(2,4-dioxotetrahydropyrimidin-1(2H)-yl)-1-methyl-1H-indazol-6-yl)-4-hydroxypiperidin-4-yl)acetyl)-2,6-diazaspiro[3.3]heptan-2-yl)phenyl)-4-fluoro-1-oxoisoindolin-2-yl)-N-(thiazol-2-yl)acetamide]
50 to 150	O=C1CCC(Nc2ccc(-c3ccc(CC(=O)N4CCC(Oc5ccc(-c6cc(F)c7c(c6)C(=O)N(C(C(=O)Nc6nccs6)c6ncn8c6CCC8)C7)cc5)CC4)cc3)cc2)C(=O)N1 (centres unmarked) [Compound 81, 2-(6,7-dihydro-5H-pyrrolo[1,2-c]imidazol-1-yl)-2-(6-(4-((1-(2-(4′-((2,6-dioxopiperidin-3-yl)amino)-[1,1′-biphenyl]-4-yl)acetyl)piperidin-4-yl)oxy)phenyl)-4-fluoro-1-oxoisoindolin-2-yl)-N-(thiazol-2-yl)acetamide]
< 50	O=C1CC[C@@H](Nc2ccc(N3CCC(O)(CC(=O)N4CCC(NC(=O)c5ccc(C#Cc6cc(F)c7c(c6)C(=O)N(C(C(=O)Nc6nccs6)c6ncn8c6C[C@@H](F)C8)C7)cn5)CC4)CC3)c(F)c2)C(=O)N1 (stereo partly drawn) [Compound 108, N-(1-(2-(1-(4-(((R)-2,6-dioxopiperidin-3-yl)amino)-2-fluorophenyl)-4-hydroxypiperidin-4-yl)acetyl)piperidin-4-yl)-5-((7-fluoro-2-(1-((R)-6-fluoro-6,7-dihydro-5H-pyrrolo[1,2-c]imidazol-1-yl)-2-oxo-2-(thiazol-2-ylamino)ethyl)-3-oxoisoindolin-5-yl)ethynyl)picolinamide]
< 50	O=C1CCC(Nc2ccc(N3CCC(O)(CC(=O)N4CC5(C4)CN(c4ccc(-c6ccc7cn(C(C(=O)Nc8nccs8)c8ncn9c8CCC9)nc7c6F)cn4)C5)CC3)cc2F)C(=O)N1 (centres unmarked) [Compound 71, 2-(6,7-dihydro-5H-pyrrolo[1,2-c]imidazol-1-yl)-2-[6-[6-[2-[2-[1-[4-[(2,6-dioxo-3-piperidyl)amino]-3-fluoro-phenyl]-4-hydroxy-4-piperidyl]acetyl]-2,6-diazaspiro[3.3]heptan-6-yl]-3-pyridyl]-7-fluoro-indazol-2-yl]-N-thiazol-2-yl-acetamide]
< 50	Cn1nc(N2CCC(=O)NC2=O)c2ccc(C3CCN(CC(=O)N4CC5(C4)CN(c4ccc(-c6cc(F)c7c(c6)C(=O)N(C(C(=O)Nc6nccs6)c6ncn8c6CCC8)C7)cc4)C5)CC3F)cc21 (centres unmarked) [Compound 133, 2-(6,7-dihydro-5H-pyrrolo[1,2-c]imidazol-1-yl)-2-[6-[4-[2-[2-[4-[3-(2,4-dioxohexahydropyrimidin-1-yl)-1-methyl-indazol-6-yl]-3-fluoro-1-piperidyl]acetyl]-2,6-diazaspiro[3.3]heptan-6-yl]phenyl]-4-fluoro-1-oxo-isoindolin-2-yl]-N-thiazol-2-yl-acetamide]
< 50	C[C@@H]1CC(O)(CC(=O)N2CC3(C2)CN(c2ccc(-c4cc(F)c5c(c4)C(=O)N(C(C(=O)Nc4nccs4)c4ncn6c4CCC6)C5)cc2)C3)C[C@H](C)N1c1ccc(NC2CCC(=O)NC2=O)cc1F (some centres unmarked) [Compound 161, 2-(6,7-dihydro-5H-pyrrolo[1,2-c]imidazol-1-yl)-2-[6-[4-[2-[2-[(2s,6r)-1-[4-[(2,6-dioxo-3-piperidyl)amino]-2-fluoro-phenyl]-4-hydroxy-2,6-dimethyl-4-piperidyl]acetyl]-2,6-diazaspiro[3.3]heptan-6-yl]phenyl]-4-fluoro-1-oxo-isoindolin-2-yl]-N-thiazol-2-yl-acetamide]
50 to 150	Cn1nc(N2CCC(=O)NC2=O)c2ccc([C@@H]3CCN(C(=O)CN4CCC5(CC4)CN(c4ccc(-c6cc(F)c7c(c6)C(=O)N(C(C(=O)Nc6nccs6)c6ncn8c6CCC8)C7)cc4)C5)CC3(F)F)cc21 (stereo partly drawn) [Compound 141, 2-(6,7-dihydro-5H-pyrrolo[1,2-c]imidazol-1-yl)-2-[6-[4-[7-[2-[(4S)-4-[3-(2,4-dioxohexahydropyrimidin-1-yl)-1-methyl-indazol-6-yl]-3,3-difluoro-1-piperidyl]-2-oxo-ethyl]-2,7-diazaspiro[3.5]nonan-2-yl]phenyl]-4-fluoro-1-oxo-isoindolin-2-yl]-N-thiazol-2-yl-acetamide]
< 50	O=C1CCC(Nc2cc(F)c(N3CCC(O)(CC(=O)N4CC5(C4)CN(c4ccc(-c6cc(F)c7c(c6)C(=O)N(C(C(=O)Nc6nccs6)c6ncn8c6CCC8)C7)cc4)C5)CC3)c(F)c2)C(=O)N1 (single isomer, unassigned; isomer 1) [Compound 119, 2-(6,7-dihydro-5H-pyrrolo[1,2-c]imidazol-1-yl)-2-(6-(4-(6-(2-(1-(4-((2,6-dioxopiperidin-3-yl)amino)-2,6-difluorophenyl)-4-hydroxypiperidin-4-yl)acetyl)-2,6-diazaspiro[3.3]heptan-2-yl)phenyl)-4-fluoro-1-oxoisoindolin-2-yl)-N-(thiazol-2-yl)acetamide, isomer 1]
< 50	Cn1nc(N2CCC(=O)NC2=O)c2ccc(C3CCN(CC(=O)N4CCC5(CC4)CN(c4ccc(-c6cc(F)c7c(c6)C(=O)N(C(C(=O)Nc6nccs6)c6ncn8c6CCC8)C7)cc4)C5)CC3(F)F)cc21 (centres unmarked) [Compound 174]
< 50	Cn1nc(N2CCC(=O)NC2=O)c2cc(F)c(N3CCN(CC(=O)N4CC5(C4)CN(c4ccc(-c6cc(F)c7c(c6)C(=O)N(C(C(=O)Nc6nccs6)c6ncn8c6CCC8)C7)cc4)C5)CC3)cc21 (centres unmarked) [Compound 123, 2-(6,7-dihydro-5H-pyrrolo[1,2-c]imidazol-1-yl)-2-[6-[4-[2-[2-[4-[3-(2,4-dioxohexahydropyrimidin-1-yl)-5-fluoro-1-methyl-indazol-6-yl]piperazin-1-yl]acetyl]-2,6-diazaspiro[3.3]heptan-6-yl]phenyl]-4-fluoro-1-oxo-isoindolin-2-yl]-N-thiazol-2-yl-acetamide]
< 50	Cn1nc(N2CCC(=O)NC2=O)c2ccc([C@H]3CCN(C(=O)CN4CCC5(CC4)CN(c4ccc(-c6cc(F)c7c(c6)C(=O)N(C(C(=O)Nc6nccs6)c6ncn8c6CCC8)C7)cc4)C5)CC3(F)F)cc21 (stereo partly drawn) [Compound 140, 2-(6,7-dihydro-5H-pyrrolo[1,2-c]imidazol-1-yl)-2-[6-[4-[7-[2-[(4R)-4-[3-(2,4-dioxohexahydropyrimidin-1-yl)-1-methyl-indazol-6-yl]-3,3-difluoro-1-piperidyl]-2-oxo-ethyl]-2,7-diazaspiro[3.5]nonan-2-yl]phenyl]-4-fluoro-1-oxo-isoindolin-2-yl]-N-thiazol-2-yl-acetamide]
50 to 150	O=C1CCC(Nc2ccc(C3CCN(C(=O)CC4CCN(c5ccc(-c6cc(F)c7c(c6)C(=O)N(C(C(=O)Nc6nccs6)c6ncn8c6CCC8)C7)cc5)CC4)CC3)c(F)c2)C(=O)N1 (centres unmarked) [Compound 86, 2-(6,7-dihydro-5H-pyrrolo[1,2-c]imidazol-1-yl)-2-[6-[4-[4-[2-[4-[4-[(2,6-dioxo-3-piperidyl)amino]-2-fluoro-phenyl]-1-piperidyl]-2-oxo-ethyl]-1-piperidyl]phenyl]-4-fluoro-1-oxo-isoindolin-2-yl]-N-thiazol-2-yl-acetamide]
